Among the test systems are LOX IMVI; SK-OV-3; HCT-116; RXF 393; T47D; UO-31; OVCAR-3; SNB-75; OVCAR-8; NCI-H23; K562; CCRF-CEM; ACHN; COLO 205; HL-60; SR; MOLT-4; MDA-MB-231; HOP-92; NCI-H226.
Holding throughout (assay): growth of human tumour cells (NCI), 48 h

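Briefly, cells in 96-well plates were exposed to five compound concentrations for 48 h, and endpoints were estimated by linear interpolation. The concentration for 50% growth inhibition is given as GI50.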 Calls of active or inactive are those of the source. No stated cut-off is given here; in the data, active = GI50 up to about 1.1 µM and inactive = higher. Starred links: 1 amine or outer side, 2 acyl side, 3 side chain; linkers in the order of their positions; H or OH if unused. Non-standard residues stand in square brackets, D forms with d. Residues, ends and D or L forms follow the SMILES beside them. *: point of attachment. X34 = CC(=O)N(C)SCC(N[*:1])C(=O)[*:2]; Cbz = O=C(OCc1ccccc1)*; Bn = c1ccc(C*)cc1; For = O=C*

Regarding `COc1ccc2nc3cc(Cl)ccc3c(NCCCN(CCCl)CCCl)c2c1`, the GI50 with LOX IMVI is 0.0126 µM (active); in the assay on SK-OV-3 it was 0.0484 µM (active); with HCT-116 it was 0.012 µM (active); with RXF 393, 0.0107 µM (active); in the assay with T47D it was < 0.01 µM (active); in the assay on UO-31 it was 0.0472 µM (active). Further, the GI50 in the assay with OVCAR-3 is 0.0432 µM (active); in the assay on SNB-75, 0.177 µM (active); in the assay with OVCAR-8, 0.0125 µM (active); in the assay with NCI-H23, 0.0116 µM (active); in the assay on K562 it was 0.0123 µM (active); in the assay with CCRF-CEM, < 0.01 µM (active). Moreover, the GI50 with ACHN is < 0.01 µM (active); in the assay on COLO 205, < 0.01 µM (active); with HL-60 it was < 0.01 µM (active); in the assay on SR, < 0.01 µM (active); in the assay on MOLT-4, < 0.01 µM (active); with MDA-MB-231, 0.0316 µM (active). Also, the results for the GI50 in the assay on HOP-92 and with NCI-H226 were 0.0126 µM (active) and 0.0385 µM (active), respectively.

`CCSc1nc(N2CCOCC2)c2cn[nH]c2n1`: the GI50 with LOX IMVI is 32.4 µM (inactive); with SK-OV-3 it was 86.3 µM (inactive); with HCT-116 it was > 100 µM (inactive); in the assay on RXF 393, > 100 µM (inactive); with T47D it was 9.73 µM (inactive); with UO-31, 21.5 µM (inactive). In addition, the GI50 was 52.1 µM (inactive) with OVCAR-3; 71.1 µM (inactive) with SNB-75; > 100 µM (inactive) in the assay on OVCAR-8; 48.1 µM (inactive) with NCI-H23; > 100 µM (inactive) in the assay on K562; 60.5 µM (inactive) in the assay with CCRF-CEM. Also, the GI50 is 31.7 µM (inactive) in the assay on ACHN; 39.7 µM (inactive) with COLO 205; > 100 µM (inactive) with HL-60; 56.1 µM (inactive) in the assay with SR; > 100 µM (inactive) in the assay with MOLT-4; > 100 µM (inactive) in the assay on MDA-MB-231. Moreover, the GI50 is 48 µM (inactive) with HOP-92 and > 100 µM (inactive) in the assay with NCI-H226.

For `NC(=O)C(c1ccccc1)N1OC2C(=O)N(c3ccccc3)C(=O)C2C1c1c2ccccc2c(Cl)c2ccccc12` (stereo not given), the GI50 with LOX IMVI, with SK-OV-3, with HCT-116, in the assay with RXF 393, in the assay with T47D and with UO-31 was > 100 µM (inactive) each time. For the same compound, the GI50 with OVCAR-3 was > 100 µM (inactive); in the assay with SNB-75, > 100 µM (inactive); in the assay with OVCAR-8 it was > 100 µM (inactive); with NCI-H23 it was > 100 µM (inactive); with K562, > 100 µM (inactive); in the assay on CCRF-CEM, 61.4 µM (inactive). Besides, the GI50 with ACHN, in the assay on COLO 205, in the assay with HL-60, in the assay with SR, in the assay with MOLT-4 and in the assay on MDA-MB-231 was > 100 µM (inactive) each time. The GI50 in the assay on HOP-92 and with NCI-H226 was > 100 µM (inactive) each time.

With `O=C(O)CC1NCc2cc3ccccc3nc21` (stereo not given), the GI50 in the assay on LOX IMVI, with SK-OV-3, in the assay with HCT-116, in the assay on RXF 393, in the assay with T47D and in the assay with UO-31 was > 100 µM (inactive) each time. The GI50 in the assay with OVCAR-3, in the assay on SNB-75, with OVCAR-8, in the assay with NCI-H23, with K562 and with CCRF-CEM was > 100 µM (inactive) throughout. Also, the GI50 with ACHN, in the assay with COLO 205, in the assay on HL-60, in the assay with SR, in the assay with MOLT-4 and with MDA-MB-231 was > 100 µM (inactive) in each case. The GI50 in the assay with HOP-92 and with NCI-H226 was > 100 µM (inactive) each time.

Consider `CC1(C)C=C(/C=N/Nc2ccc(Br)cc2)C(C#N)=C(O)C1(C#N)C#N`, for which the GI50 in the assay on LOX IMVI is 64.6 µM (inactive); in the assay on SK-OV-3, 57.8 µM (inactive); with HCT-116, 32.2 µM (inactive); with RXF 393, 33.8 µM (inactive); in the assay on T47D, 40.9 µM (inactive); in the assay with UO-31 it was 22.8 µM (inactive). Further, the GI50 with OVCAR-3 is 31.9 µM (inactive); in the assay with SNB-75 it was 66.4 µM (inactive); in the assay on OVCAR-8, 52.5 µM (inactive); in the assay with NCI-H23, 46 µM (inactive); in the assay on K562, 17.7 µM (inactive); in the assay on CCRF-CEM, 35.8 µM (inactive). Further, the GI50 was 33.3 µM (inactive) in the assay on ACHN; 19.8 µM (inactive) with COLO 205; 26.1 µM (inactive) in the assay on HL-60; 26.4 µM (inactive) in the assay with SR; 29.2 µM (inactive) in the assay with MOLT-4; 39.5 µM (inactive) in the assay with MDA-MB-231. Besides, the GI50 in the assay with HOP-92 is 22.4 µM (inactive); in the assay with NCI-H226, 88.3 µM (inactive).

Turning to `O=C(CC(NC(=O)C(F)(F)F)C(=O)O)OCc1ccccc1` (stereo not given), the GI50 with LOX IMVI, with SK-OV-3, with HCT-116, with RXF 393, with T47D and with UO-31 was > 100 µM (inactive) throughout. The GI50 with OVCAR-3, with SNB-75, in the assay on OVCAR-8, in the assay with NCI-H23, in the assay with K562 and in the assay with CCRF-CEM was > 100 µM (inactive) throughout. Further, the GI50 with ACHN, in the assay with COLO 205, in the assay with HL-60, with SR, in the assay on MOLT-4 and with MDA-MB-231 was > 100 µM (inactive) throughout. The GI50 in the assay with HOP-92 and in the assay on NCI-H226 was > 100 µM (inactive) in each case.

With `NS(=O)(=O)c1ccc(NC(=S)N/C=C2\C(=O)Nc3ccccc3C2=O)cc1`, the GI50 with LOX IMVI, with SK-OV-3, in the assay on HCT-116, in the assay on RXF 393, in the assay with T47D and in the assay with UO-31 was > 100 µM (inactive) each time. Also, the GI50 in the assay with OVCAR-3, in the assay with SNB-75, with OVCAR-8, in the assay on NCI-H23, in the assay with K562 and in the assay on CCRF-CEM was > 100 µM (inactive) each time. Besides, the GI50 was > 100 µM (inactive) in the assay with ACHN; > 100 µM (inactive) with COLO 205; 2.07 µM (inactive) with HL-60; > 100 µM (inactive) in the assay with SR; > 100 µM (inactive) in the assay with MOLT-4; > 100 µM (inactive) in the assay with MDA-MB-231. Moreover, the GI50 with HOP-92 and with NCI-H226 was > 100 µM (inactive) throughout.

As for `CC(=O)N(C)SCC(NC(=O)C(Cc1ccccc1)NC(=O)OCc1ccccc1)C(=O)NC(Cc1ccccc1)C(=O)NC(Cc1cn(C=O)c2ccccc12)C(=O)NC(CCCCNC(=O)OCc1ccccc1)C(=O)NC(C(=O)NC(CSN(C)C(C)=O)C(=O)NC(C(N)=O)C(C)OCc1ccccc1)C(C)OCc1ccccc1` (stereo not given) (Cbz-F[X34]FW(For)K(Cbz)T(Bn)[X34]T(Bn)-NH2; configuration not given here), the GI50 with LOX IMVI was > 100 µM (inactive); with SK-OV-3, 33.2 µM (inactive); with HCT-116, 61.5 µM (inactive); in the assay on RXF 393, 14.6 µM (inactive); in the assay on T47D, > 100 µM (inactive); in the assay with UO-31 it was 45.7 µM (inactive). In addition, the GI50 in the assay on OVCAR-3 is > 100 µM (inactive); in the assay on SNB-75, 11.3 µM (inactive); in the assay with OVCAR-8 it was 26.1 µM (inactive); with NCI-H23 it was 32 µM (inactive); with K562, > 100 µM (inactive); in the assay with CCRF-CEM, > 100 µM (inactive). Also, the GI50 in the assay on ACHN is > 100 µM (inactive); with COLO 205, > 100 µM (inactive); in the assay with HL-60, > 100 µM (inactive); in the assay with SR, > 100 µM (inactive); in the assay on MOLT-4 it was > 100 µM (inactive); in the assay on MDA-MB-231 it was 14.7 µM (inactive). Moreover, the GI50 in the assay with HOP-92 is 19.7 µM (inactive); in the assay with NCI-H226 it was > 100 µM (inactive).
